According to patent US7253177B2, “Synthesis and antimalarial activity of pyrrolo[3,2-f]quinazoline-1,3-diamine derivatives” (United States of America as Represented by the Secretary of …, priority 2004, dated 2007):
≈ marks a conversion by molar mass, not a printed value.

What was measured:
[1] = tested on: Plasmodium falciparum TM91C235 (Southeast Asia Isolates); assay: In vitro antimalarial study, [3H]hypoxanthine uptake, TM91C235 clone; format: cell-based
Description: (§1) B. Antimalarial Activities: (a). In Vitro Antimalarial Studies. The in vitro assays were conducted by using a modification of the semiautomated microdilution technique of Desjardins et al and Chulay et al.. Four P. falciparum malaria parasite clones, from CDC Indochina III (W-2), CDC Sierra Leone I (D-6), Southeast Asia Isolates (TM91C235) and RCS (Isolates from Brazil) were utilized in susceptibility testing. They were derived by direct visualization and micromanipulation from patient isolates. The W-2 clone is susceptible to mefloquine but resistant to chloroquine, sulfadoxine, pyrimethamine, and quinine, whereas the D-6 clone is naturally resistant to mefloquine but susceptible to chloroquine, sulfadoxine, pyrimethamine and quinine. Test compounds were initially dissolved in DMSO and diluted 400 fold in RPMI 1640 culture medium supplemented with 25 mM Hepes, 32 mM NaHCO3 and 10% Albumax I (Gibco BRL, Grand Island, N.Y.). These solutions were subsequently serially diluted two-fold with a Biomek 1000 (Beckman, Fullerton, Calif.) over 11 different concentrations. The parasites were exposed to serial dilutions of each compound for 48 hrs and incubated at 37° C. with 5% O2, 5% CO2 and 90% N2 prior to the addition of [^3H]hypoxanthine. After a further incubation of 18 hrs, parasite DNA was harvested from each microtiter well using Packard Filtermate 196 Harvester (Meriden, Conn.) onto glass filters. Uptake of [^3H]hypoxanthine was measured with a Packard Topcount Scintillation. Concentration-response data were analyzed by a non-linear regression logistic dose response model and the IC50 values (50% inhibitory concentrations) for each compound were calculated. (Table 3). (b). In Vivo Antimalarial Studies against P. berghei in mice: The in vivo efficacy of the artelinic acid analogs were determined in a modified Thompson test. This test measures the survivability of mice and parasitemia clearance following administration of drug on days 3-5 post infection. In brief, 5×10^6 P. berghei-infected erythrocytes (KBG-173 strain) were inoculated intraperitoneally to female mice that weighed 24-30 g. By day three post-infection, parasitemia ranged from 1.0-3.7%. Each drug, dissolved in 5% sodium bicarbonate, was administered PO twice daily from day 3-5 post-infection. Total doses for each drug ranged from 1.5-384 mg/kg with 8 mice included in each dosage group. The percent suppression of parasitemia in the treated mice compared to the untreated controls was determined for each test compound; the SD-50 (fifty percent suppression dose) and SD-90 were determined from a non-linear regression logistic dose response fit at day 6 parasitemia data. Survival of mice to day 60 post-infection was considered a cure (C). Compounds were considered active (A) when the survival time of the treated mice was greater than twice the control mice, i.e., 12-14 day (Table 4-5). (c). Sporozoite Induced Test Each compound is ground with a mortar & pestle and suspended in 0.5% hydroxyethylcellulose—0.1% Tween 80 for compounds to be administered PO and those given SC are suspended in peanut oil. Each compound is prepared at 3 different dose levels as requested by WRAIR. Compounds are administered either PO or SC to mice once 4 hr before inoculation of sporozoites. Four-week-old male CD-1 mice, purchased from Charles River and weighing 16-17 g, are placed 5 per cage and allowed to acclimate for 4 days before being treated and then inoculated with sporozoites. They are fed food and water ad-lib and maintained at 76° F. with 12 hr light and 12 hr darkness. The cages and water bottles are changed biweekly. The mice are weighed on Days 0, 3 and 6 then biweekly when blood films are taken. Plasmodium yoelii (17×) is used to infect mice that will be used to infect the mosquitoes. Mice are given a single dose of test compound 4 hr before being inoculated intraperitoneally with 2.5×10^5 sporozoites of Plasmodium yoelii on Day 0. […]

[2] = Toxicity in P. cynomolgi-infected Rhesus monkeys; conditions: 12 mg/kg/day for 7 consecutive days
[3] = tested on: Plasmodium falciparum RCS (Isolates from Brazil); assay: In vitro antimalarial study, [3H]hypoxanthine uptake, RCS clone; format: cell-based; conditions: P. falciparum RCS clone
Description: as §1

P. berghei ANKA = assay: In vivo antimalarial study against P. berghei in rats; parameters: species or system Plasmodium berghei

| SMILES | IC50 TM91C235 ([1]; P. falciparum TM91C235 clone) | signs of toxicity [2] | IC50 RCS [3] | IC50 ([1]; Plasmodium falciparum, read-out: IC50 TM91C235) | cure against P. berghei in rats (P. berghei ANKA; 5 mg/kg intragastric daily x3 (days 6, 7, 8 post-inoculation)) | cure against P. berghei in rats (P. berghei ANKA; 10 mg/kg intragastric daily x3) | cure against P. berghei in rats (P. berghei ANKA; 20 mg/kg intragastric daily x3) | IC50 ([3]; Plasmodium falciparum) |
| --- | --- | --- | --- | --- | --- | --- | --- | --- |
| CCOC(=O)Nc1nc(NC(=O)OCC)c2c(ccc3c2ccn3Cc2ccccc2C(F)(F)F)n1 [Compound 2b] | >250 ng/mL | neither 2b nor 3e exhibited any sign of toxicity | >250 ng/mL | – | – | – | – | – |
| CC(=O)N(C(C)=O)c1nc(N(C(C)=O)C(C)=O)c2c(ccc3c2ccn3Cc2ccccc2C(F)(F)F)n1 [Compound 3e, 1,3-Bis(diacetylamino)-7-(2-trifluoromethyl)benzyl-7H-pyrrolo[3,2-f]quinazoline] | – | neither 2b nor 3e exhibited any sign of toxicity | – | 0.0845 ng/mL (≈ 0.161 nM) | 100% | 100% | 100% | 0.0236 ng/mL (≈ 0.0449 nM) |
